# Measurements from patent US20130267594A1, “PROLYL HYDROXYLASE INHIBITORS AS RADIATION MITIGATORS AND RADIATION PROTECTORS” (priority 2010, published 2013).
# Columns and labels:
# KDM4D = target: T1, KDM4D (Homo sapiens, UniProt Q6B0I6); assay: KDM4D demethylation of H3K9me3 in transfected cells, immunofluorescent staining (FIG. 2); format: cell-based
# T1 construct: expressed in transfected cells
# T1 sequence (Q6B0I6 1-523): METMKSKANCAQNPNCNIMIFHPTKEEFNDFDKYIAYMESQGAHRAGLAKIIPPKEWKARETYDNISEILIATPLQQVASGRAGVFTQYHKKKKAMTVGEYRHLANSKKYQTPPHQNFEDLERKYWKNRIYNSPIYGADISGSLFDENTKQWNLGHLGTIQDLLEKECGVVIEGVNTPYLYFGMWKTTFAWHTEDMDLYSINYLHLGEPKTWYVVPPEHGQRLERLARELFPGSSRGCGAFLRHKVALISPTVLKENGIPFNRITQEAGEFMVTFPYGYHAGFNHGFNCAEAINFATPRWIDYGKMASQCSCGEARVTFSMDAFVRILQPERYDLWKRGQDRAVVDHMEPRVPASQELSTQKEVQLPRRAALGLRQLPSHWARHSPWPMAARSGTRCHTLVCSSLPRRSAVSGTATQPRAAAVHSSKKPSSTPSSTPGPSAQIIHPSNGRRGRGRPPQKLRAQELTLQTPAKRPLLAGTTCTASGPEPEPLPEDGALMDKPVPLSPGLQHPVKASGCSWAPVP
# Protocol: HeLa cells were transiently transfected with either vector or KDM4D, followed by incubation with either solvent (PBS, control) or DMOG (100 μM) and then visualized by fluorescent microscopy.
# Immunofluorescence: Cells (on cover slides) were fixed in phosphate-buffered saline (PBS) containing 2% paraformaldehyde. Cells were permeabilized in 0.2% Triton X-100 in PBS for 5mins, and then blocked in fetal bovine serum for 20 min, Primary antibodies were prepared in 10% fetal bovine serum supplemented with 0.2% saponin. After a 1 h incubation with primary antibody, cells were washed three times with 0.2% Tween-20 and incubated for 1 h in secondary antibody (conjugated to either Texas Red or FITC; Santa Cruz Biotechnology, CA). Slides were mounted with Fluoromount-G (Southern Biotech, AL). […]
# KDMs utilize an Fe-oxo intermediate to form an unstable hydroxy-methyl intermediate, which spontaneously releases formaldehyde, leading to removal of a single methyl group. […] In FIG. 2B, Murine Embryonic Fibroblasts (MEFs) were transfected with empty vector or KDM4D, which specifically demethylates H3K9me3, and the levels of chromatin associated H3K9me3 measured by immunofluorescent staining using an anti-H3K9me3 antibody. In untreated cells, high levels of H3K9me3 were detected, and transient expression of the H3K9me3 demethylase KDM4D essentially demethylated the entire nuclear H3K9me3 signal. […]
# HeLa cells = assay: Control experiment: toxicity of DMOG to the cells over the time course; format: cell-based; details: control experiments to FIG. 2
# [1] = tested on: MEFs expressing shRNA targeting Hif1α; assay: Clonogenic cell survival assay after ionizing radiation, MEFs with Hif1α silenced; format: cell-based, mouse; details: DMOG 1 mM, FIG. 11A
# [2] = tested on: C57BL/6J and Balb/c mice after TBI; assay: Murine total body irradiation (TBI) model, 30 day survival; format: in vivo, mouse; details: 8 Gy TBI, DMOG 100 mg/kg ip 4 hrs before, 12 hrs and 36 hrs after TBI, 30 days
# Protocol: Mice (10 per group) were irradiated (8 Gy TBI) and survival monitored over 30 days. DMOG (100 mg/kg) or saline was administered ip 4 hrs before TBI, and 12 hrs and 36 hrs after TBI.
# Mice: This study was carried out in strict accordance with the recommendations in the Guide for the Care and Use of Laboratory Animals of the National Institutes of Health. The protocol was reviewed and approved by the Dana-Farber Cancer Institute's Animal Care and Use Committee (Protocol number 06-029). All efforts were made to minimize suffering. Male Balb/c mice were purchased from Taconic (NY, USA) and C57BL/6J mice were purchased from The Jackson Laboratory (ME, USA). For total body irradiation (TBI), mice were irradiated at the dose rate of 110 cGy/min using a ^137Cs source (Gammacell® 40Exactor, Best Theratronics, Ottawa, Canada). DMOG (dissolved in saline) or saline was administered IP before and after TBI. The mice were given normal water that had undergone reverse osmosis and powdered food (Purina Pico Lab Chow) after TBI. The animals were closely inspected after TBI for ill-health and the moribund animals were sacrificed according to the guidelines in our approved ACUC protocol. The Kaplan-Meier survival curves were plotted for saline-treated and DMOG-treated cohorts. The statistical analysis of the Kaplan-Meier survival curves was performed with Graph Pad Prism Version 5 using Mantel Log-rank test.
# Hif1α [3] = format: cell-based
# CHD4 = format: cell-based; details: MCF-7 cells; CoCl2 200 μM 8 hr, FIG. 8D; DMOG only stated
# H3K9me3 = H3K9me3 immunofluorescent staining in MEFs (FIG. 10A); format: cell-based, mouse; details: DMOG 1 mM 24 hr
# Protocol: In FIG. 10A MEFs were incubated in either solvent (Control: DMSO) or DMOG (1 mM) for 24 hr. H3K9me3 levels were detected by immunofluorescent staining with antibody to H3K9me3 and co-stained with DAPI to locate nuclear DNA. In FIG. 10B HEK293T cells were transiently transfected with vector or KDM4A and allowed to recover for 30 hrs. Cells were either untreated or incubated with DMOG (1 mM) for 24 hrs. H3K9me3 levels were detected by immunofluorescent staining with antibody to H3K9me3. In FIG. 10C MCF-7 cells were incubated in increasing concentrations of DMOG or CoCl2 (200 μM) for 24 hrs. […] In FIG. 10D MCF-7 cells were incubated in DMOG (1 mM) or CoCl2 (200 μM) for the indicated time. […] In FIG. 10E MCF-7 cells expressing either a non-specific shRNA (shRNA^Con) or shRNA targeting Hif1α (shRNA^Hif1α) were incubated with DMOG or CoCl2 (200 μM) for 24 hrs.
# Immunofluorescence: Cells (on cover slides) were fixed in phosphate-buffered saline (PBS) containing 2% paraformaldehyde. Cells were permeabilized in 0.2% Triton X-100 in PBS for 5mins, and then blocked in fetal bovine serum for 20 min, Primary antibodies were prepared in 10% fetal bovine serum supplemented with 0.2% saponin. After a 1 h incubation with primary antibody, cells were washed three times with 0.2% Tween-20 and incubated for 1 h in secondary antibody (conjugated to either Texas Red or FITC; Santa Cruz Biotechnology, CA). […]
# Hif1α [4] = format: cell-based, mouse
smiles,measurement,setting,value
"COC(=O)CNC(=O)C(=O)OC [DMOG, dimethyloxalylglycine]",ability of KDM4D to demethylate H3K9me3,"KDM4D; cells expressing KDM4D, DMOG 100 μM, anti-H3K9me3 staining",inhibited the ability of KDM4D to demethylate H3K9me3
same,level of expression of the KDM4D enzyme,KDM4D; control experiments to FIG. 2,did not alter the level of expression of the KDM4D enzyme
same,toxicity over the time course of the experiment,HeLa cells,did not exhibit significant toxicity
same,radioresistance (clonogenic survival) when Hif1α was silenced,[1],this effect was lost
same,survival after TBI,"[2]; Balb/c mice, FIG. 6B",significantly improved the survival
same,survival after TBI,"[2]; C57BL/6J mice, FIG. 6A",significantly improved the survival
same,accumulation of Hif1α,Hif1α [3],significant accumulation of Hif1α
same,"accumulation of Hif1α protein in combination with IR, versus agent alone",Hif1α [3],much larger accumulation of Hif1α protein
same,CHD4 mRNA levels,CHD4,increased
same,H3K9me3 in cells,H3K9me3,rapidly increased H3K9me3
same,ability to increase Hif1α levels in SuvDKO MEFs,Hif1α [4],not altered
